In patent EP3839043A1, “SCREENING METHODS FOR COMPOUNDS MODULATING POLYAMINE TRANSPORT” (Katholieke Universiteit Leuven, priority 2019, dated 2021):

System: isolated mouse cortical neurons
Test: TUNEL staining of SPM-treated primary neurons
Type: cell-based
Conditions: CA-074 10 µM; SPM 10 µM, 24 h; Atp13a2 knockdown neurons
Description: Neuron isolation - Primary cortical neurons were derived from E16 FVB/N mice embryos. Pregnant mice were sacrificed on gestation day 16 by cervical dislocation. E16 mice pup brains were collected and placed in a dish containing calcium- and magnesium-free Hanks' Balanced Salt Solution (HBSS, Life Technologies, 14180-046) on ice. Both cerebral hemispheres were separated from the cerebellum. Meninges were removed from the cerebral hemispheres and the brain cortices dissected. Brain cortices were collected, washed twice and digested with 0.05% trypsin (Life Technologies, 25300-054, 10 min at 37°C). Trypsin reaction was terminated by the addition of 7 ml HBSS and 1 ml of horse serum. Cells were separated by pipetting and filtration through a cell strainer (40 µm, Falcon, 352340). Cells were centrifuged at 1,000 rpm for 5 min (4°C), the supernatant discarded and the pellet suspended in 5 ml Dulbecco's Modified Eagle Medium (DMEM; Sigma-Aldrich, D6546) containing GlutaMAX (Life Technologies, 31966-021) containing 5% horse serum (Life Technologies, 26050-088) and 20 mM glucose (Sigma-Aldrich, 8270). Primary cortical neurons were plated in 12 well plates, on cover slips coated with poly-D-lysine (Sigma-Aldrich, P6407). […]
TUNEL staining - TUNEL staining was assessed according to the manufacturer's protocol for the Click-iT Plus TUNEL assay (ThermoFisher, C10617). […]

## CCCNC(=O)[C@H]1O[C@@H]1C(=O)N[C@H](C(=O)N1CCC[C@H]1C(=O)O)[C@@H](C)CC [CA-074]
  SPM-induced neuronal death (TUNEL positivity): rescues SPM-induced neuronal death
